# Activity calls are given as the source filed them. No cut-off for these calls is given here.
# Assays:
# [1] = Chemical stability assessed as hydrolysis half life; type: physicochemical
# [2] = molecular target: Chymotrypsin-like elastase family member 1 (Sus scrofa) (UniProt P00772); assay: Inhibition of pig pancreatic elastase assessed as formation of p-nitroaniline at 1 uM
# [3] = molecular target: Chymotrypsin-like elastase family member 1 (Sus scrofa) (UniProt P00772); assay: Reversible inhibition of pig pancreatic elastase at 1 to 100 uM preincubated for 20 mins before addition of N-succinyl-L-alanyl-Lalanyl- L-alanyl-p-nitroanilide by incubation/dilution method
# [4] = molecular target: Chymotrypsin-like elastase family member 1 (Sus scrofa) (UniProt P00772); assay: Reversible inhibition of pig pancreatic elastase at 1 to 100 uM preincubated for 40 mins before addition of N-succinyl-L-alanyl-Lalanyl- L-alanyl-p-nitroanilide by incubation/dilution method
# [5] = molecular target: Chymotrypsin-like elastase family member 1 (Sus scrofa) (UniProt P00772); assay: Reversible inhibition of pig pancreatic elastase at 1 to 100 uM preincubated for 60 mins before addition of N-succinyl-L-alanyl-Lalanyl- L-alanyl-p-nitroanilide by incubation/dilution method
# [6] = Inhibition of beta-lactamase TEM1 at 100 uM
# [7] = molecular target: T1, MecA (Staphylococcus aureus) (UniProt Q7DHH4); assay: Inhibition of methicillin-resistant Staphylococcus aureus ATCC […] PBP2a assessed as residual activity at 100 uM after 16 hrs; settings: values are per cent of control
# T1 sequence (whole entry): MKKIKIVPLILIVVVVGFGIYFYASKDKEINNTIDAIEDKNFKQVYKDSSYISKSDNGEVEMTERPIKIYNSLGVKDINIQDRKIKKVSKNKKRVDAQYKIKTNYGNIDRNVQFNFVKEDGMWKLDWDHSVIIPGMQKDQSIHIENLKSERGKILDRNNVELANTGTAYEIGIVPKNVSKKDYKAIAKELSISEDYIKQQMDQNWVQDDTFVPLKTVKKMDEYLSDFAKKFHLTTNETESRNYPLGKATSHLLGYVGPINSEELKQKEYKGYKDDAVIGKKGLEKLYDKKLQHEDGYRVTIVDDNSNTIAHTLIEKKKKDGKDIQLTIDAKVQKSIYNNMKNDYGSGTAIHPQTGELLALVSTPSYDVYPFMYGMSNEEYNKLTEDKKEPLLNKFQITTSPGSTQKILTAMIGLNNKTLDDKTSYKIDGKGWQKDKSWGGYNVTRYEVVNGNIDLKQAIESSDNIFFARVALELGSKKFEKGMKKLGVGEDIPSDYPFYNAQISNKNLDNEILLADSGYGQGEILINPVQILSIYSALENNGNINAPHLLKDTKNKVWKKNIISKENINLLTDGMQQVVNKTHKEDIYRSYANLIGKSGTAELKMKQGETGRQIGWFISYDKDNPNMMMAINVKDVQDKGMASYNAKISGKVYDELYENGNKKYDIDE
# Enterococcus faecium = assay: Residual activity of Enterococcus faecium PBP5fm at 100 uM after 16 hrs
# [8] = molecular target: D-alanyl-D-alanine carboxypeptidase (Actinomadura sp. R39) (UniProt P39045); assay: Residual activity of Actinomadura R39 DD-peptidase at 100 uM after 16 hrs
# [9] = molecular target: T2, Penicillin-binding protein 2x (Streptococcus pneumoniae serotype 4 (strain ATCC BAA-334 / TIGR4)) (UniProt P14677); assay: Residual activity of Streptococcus pneumoniae 5204 PBP2x at 100 uM after 16 hrs
# T2 sequence (whole entry): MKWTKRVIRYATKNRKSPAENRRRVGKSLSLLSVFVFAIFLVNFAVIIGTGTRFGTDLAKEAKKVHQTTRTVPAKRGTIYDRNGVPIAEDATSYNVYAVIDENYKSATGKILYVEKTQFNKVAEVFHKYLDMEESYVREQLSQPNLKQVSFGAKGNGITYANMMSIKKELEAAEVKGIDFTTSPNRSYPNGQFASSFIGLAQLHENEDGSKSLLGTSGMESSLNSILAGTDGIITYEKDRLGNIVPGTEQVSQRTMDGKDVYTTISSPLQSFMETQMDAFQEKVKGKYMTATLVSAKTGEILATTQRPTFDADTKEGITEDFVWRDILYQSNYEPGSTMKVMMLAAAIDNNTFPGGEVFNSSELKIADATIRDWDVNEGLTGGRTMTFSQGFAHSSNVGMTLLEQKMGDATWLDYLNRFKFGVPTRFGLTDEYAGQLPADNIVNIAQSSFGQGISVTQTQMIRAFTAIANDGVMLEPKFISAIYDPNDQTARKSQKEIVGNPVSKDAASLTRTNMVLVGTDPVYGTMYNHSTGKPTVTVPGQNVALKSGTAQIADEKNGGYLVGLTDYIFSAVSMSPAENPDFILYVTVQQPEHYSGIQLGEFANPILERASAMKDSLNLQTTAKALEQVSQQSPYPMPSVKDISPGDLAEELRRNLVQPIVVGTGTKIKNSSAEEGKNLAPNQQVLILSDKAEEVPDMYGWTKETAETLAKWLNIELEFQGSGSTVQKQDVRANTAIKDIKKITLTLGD
# [10] = molecular target: Chymotrypsin-like elastase family member 1 (Sus scrofa) (UniProt P00772); assay: Inhibition of pig pancreatic elastase assessed as formation of p-nitroaniline at 100 uM
# Sequence of Chymotrypsin-like elastase family member 1 (Sus scrofa) (P00772 whole entry): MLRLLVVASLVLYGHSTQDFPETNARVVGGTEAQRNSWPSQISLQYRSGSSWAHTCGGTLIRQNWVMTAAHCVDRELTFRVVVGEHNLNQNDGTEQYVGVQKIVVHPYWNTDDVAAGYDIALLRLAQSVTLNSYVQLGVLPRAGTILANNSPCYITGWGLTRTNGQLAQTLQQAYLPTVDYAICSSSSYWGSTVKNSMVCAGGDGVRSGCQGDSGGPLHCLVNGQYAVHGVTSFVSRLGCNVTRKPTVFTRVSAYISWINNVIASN
compound,measurement,setting,value
C=CCCC(=O)O[C@H](C)[C@H]1C(=O)N(C(=O)CCC=C)[C@@H]1OC(C)=O,half-life,[1],960 min
same,inhibition,[2],Active
same,inhibition,[3],Active
same,inhibition,[4],Active
same,inhibition,[5],Active
same,inhibition,[6],inactive
same,residual activity,[7],66%
same,residual activity,Enterococcus faecium,84%
same,residual activity,[8],14%
same,residual activity,[9],93%
CC(=O)O[C@@H]1[C@@H]2C(=O)N1C(=O)CC/C=C/CCC(=O)O[C@@H]2C,half-life,[1],360 min
same,inhibition,[10],inactive
same,inhibition,[6],inactive
same,residual activity,[7],86%
same,residual activity,Enterococcus faecium,104%
same,residual activity,[8],96%
same,residual activity,[9],116%
CC(=O)O[C@@H]1[C@@H]2C(=O)N1C(=O)CCCCCCC(=O)O[C@@H]2C,half-life,[1],240 min
same,inhibition,[10],inactive
same,inhibition,[6],inactive
same,residual activity,[7],94%
same,residual activity,Enterococcus faecium,113%
same,residual activity,[8],113%
same,residual activity,[9],99%
CC1(C)S[C@@H]2[C@H](NC(=O)Cc3ccccc3)C(=O)N2[C@H]1C(=O)O,residual activity,[7],13%
same,residual activity,Enterococcus faecium,10%
same,residual activity,[9],< 5%
